In ChEMBL document CHEMBL4507262, “Data for DCP probe A-1596586” (2021):

Legend:
[1] = target: Serine/threonine-protein kinase MRCK beta (Homo sapiens) (UniProt Q9Y5S2); conditions: Compound concentration 1000.0 nM
[2] = system: Phosphatidylinositol 4,5-bisphosphate 3-kinase catalytic subunit alpha isoform (Homo sapiens), P42336 [M1043I]; conditions: Compound concentration 1000.0 nM
[3] = system: Tyrosine-protein kinase ABL1 (Homo sapiens), P00519 [H396P]; conditions: Compound concentration 1000.0 nM
[4] = target: Mitogen-activated protein kinase kinase kinase kinase 2 (Homo sapiens) (UniProt Q12851); conditions: Compound concentration 1000.0 nM
[5] = target: Mitogen-activated protein kinase kinase kinase 13 (Homo sapiens) (UniProt O43283); conditions: Compound concentration 1000.0 nM
[6] = target: Sodium-dependent serotonin transporter (Homo sapiens) (UniProt P31645); test: 5-HT transporter (h) Eurofins-Cerep binding assay; set-up: ligand concentration 2 nM; conditions: filed as antagonist, Compound concentration 10.0 uM
[7] = target: Ephrin type-B receptor 6 (Homo sapiens) (UniProt O15197); conditions: Compound concentration 1000.0 nM
[8] = target: Mitogen-activated protein kinase kinase kinase 19 (Homo sapiens) (UniProt Q56UN5); conditions: Compound concentration 1000.0 nM
[9] = target: Dual specificity protein kinase CLK3 (Homo sapiens) (UniProt P49761); conditions: Compound concentration 1000.0 nM
[10] = target: Serine/threonine-protein kinase 35 (Homo sapiens) (UniProt Q8TDR2); conditions: Compound concentration 1000.0 nM
[11] = target: Bone morphogenetic protein receptor type-1A (Homo sapiens) (UniProt P36894); conditions: Compound concentration 1000.0 nM
[12] = target: Mitogen-activated protein kinase 15 (Homo sapiens) (UniProt Q8TD08); conditions: Compound concentration 1000.0 nM
[13] = target: Interferon-induced, double-stranded RNA-activated protein kinase (Homo sapiens) (UniProt P19525); conditions: Compound concentration 1000.0 nM
[14] = system: Phosphatidylinositol 4,5-bisphosphate 3-kinase catalytic subunit alpha isoform (Homo sapiens), P42336 [Q546K]; conditions: Compound concentration 1000.0 nM
[15] = target: Mitogen-activated protein kinase kinase kinase 4 (Homo sapiens) (UniProt Q9Y6R4); conditions: Compound concentration 1000.0 nM
[16] = target: Urotensin-2 receptor (Homo sapiens) (UniProt Q9UKP6); test: UT (h) Eurofins-Cerep binding assay; set-up: ligand concentration 0.1 nM; conditions: filed as agonist, Compound concentration 10.0 uM
[17] = target: 3-phosphoinositide-dependent protein kinase 1 (Homo sapiens) (UniProt O15530); conditions: Compound concentration 1000.0 nM
[18] = target: Mitogen-activated protein kinase kinase kinase 3 (Homo sapiens) (UniProt Q99759); conditions: Compound concentration 1000.0 nM
[19] = target: Serine/threonine-protein kinase STK11 (Homo sapiens) (UniProt Q15831); conditions: Compound concentration 1000.0 nM
[20] = target: Adenosine receptor A2a (Homo sapiens) (UniProt P29274); test: A2A (h) Eurofins-Cerep binding assay; set-up: ligand concentration 6 nM; conditions: filed as agonist, Compound concentration 10.0 uM
[21] = target: NUAK family SNF1-like kinase 2 (Homo sapiens) (UniProt Q9H093); conditions: Compound concentration 1000.0 nM
[22] = target: Histamine H1 receptor (Homo sapiens) (UniProt P35367); conditions: Compound concentration 10.0 uM
[23] = target: Serine/threonine-protein kinase WNK1 (Homo sapiens) (UniProt Q9H4A3); conditions: Compound concentration 1000.0 nM
[24] = system: Tyrosine-protein kinase ABL1 (Homo sapiens), P00519 [E255K]; conditions: Compound concentration 1000.0 nM
[25] = target: Homeodomain-interacting protein kinase 3 (Homo sapiens) (UniProt Q9H422); conditions: Compound concentration 1000.0 nM
[26] = target: T1, Alpha-1B adrenergic receptor (Homo sapiens) (UniProt P35368); conditions: Compound concentration 10.0 uM
T1 sequence (whole entry): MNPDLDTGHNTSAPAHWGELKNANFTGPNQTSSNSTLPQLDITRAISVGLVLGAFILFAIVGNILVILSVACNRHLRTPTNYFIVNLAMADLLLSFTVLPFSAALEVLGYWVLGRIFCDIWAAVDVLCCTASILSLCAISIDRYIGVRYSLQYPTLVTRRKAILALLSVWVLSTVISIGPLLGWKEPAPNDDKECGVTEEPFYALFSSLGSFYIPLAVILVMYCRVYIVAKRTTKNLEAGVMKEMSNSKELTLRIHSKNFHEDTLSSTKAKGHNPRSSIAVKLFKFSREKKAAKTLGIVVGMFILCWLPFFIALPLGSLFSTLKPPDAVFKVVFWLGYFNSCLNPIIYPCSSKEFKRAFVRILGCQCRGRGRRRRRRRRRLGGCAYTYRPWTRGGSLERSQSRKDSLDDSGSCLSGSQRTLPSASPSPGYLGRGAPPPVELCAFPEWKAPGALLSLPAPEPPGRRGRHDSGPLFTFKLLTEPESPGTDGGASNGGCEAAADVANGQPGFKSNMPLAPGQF

[27] = target: Serine/threonine-protein kinase mTOR (Homo sapiens) (UniProt P42345); conditions: Compound concentration 1000.0 nM
[28] = target: Tyrosine-protein kinase ITK/TSK (Homo sapiens) (UniProt Q08881); conditions: Compound concentration 1000.0 nM
[29] = target: Dual specificity tyrosine-phosphorylation-regulated kinase 2 (Homo sapiens) (UniProt Q92630); conditions: Compound concentration 1000.0 nM
[30] = target: Calcium/calmodulin-dependent protein kinase type IV (Homo sapiens) (UniProt Q16566); conditions: Compound concentration 1000.0 nM
[31] = target: Tyrosine-protein kinase Yes (Homo sapiens) (UniProt P07947); conditions: Compound concentration 1000.0 nM
[32] = target: Calcium/calmodulin-dependent protein kinase type II subunit alpha (Homo sapiens) (UniProt Q9UQM7); conditions: Compound concentration 1000.0 nM
[33] = target: Serine/threonine-protein kinase DCLK3 (Homo sapiens) (UniProt Q9C098); conditions: Compound concentration 1000.0 nM
[34] = target: Mitogen-activated protein kinase 9 (Homo sapiens) (UniProt P45984); conditions: Compound concentration 1000.0 nM
[35] = target: Kappa-type opioid receptor (Homo sapiens) (UniProt P41145); test: kappa (h) (KOP) Eurofins-Cerep binding assay; set-up: ligand concentration 0.5 nM; conditions: filed as agonist, Compound concentration 10.0 uM
[36] = target: cGMP-dependent protein kinase 2 (Homo sapiens) (UniProt Q13237); conditions: Compound concentration 1000.0 nM
[37] = target: Serine/threonine-protein kinase D1 (Homo sapiens) (UniProt Q15139); conditions: Compound concentration 1000.0 nM

Urotensin-2 receptor (Homo sapiens), sequence (Q9UKP6 whole entry): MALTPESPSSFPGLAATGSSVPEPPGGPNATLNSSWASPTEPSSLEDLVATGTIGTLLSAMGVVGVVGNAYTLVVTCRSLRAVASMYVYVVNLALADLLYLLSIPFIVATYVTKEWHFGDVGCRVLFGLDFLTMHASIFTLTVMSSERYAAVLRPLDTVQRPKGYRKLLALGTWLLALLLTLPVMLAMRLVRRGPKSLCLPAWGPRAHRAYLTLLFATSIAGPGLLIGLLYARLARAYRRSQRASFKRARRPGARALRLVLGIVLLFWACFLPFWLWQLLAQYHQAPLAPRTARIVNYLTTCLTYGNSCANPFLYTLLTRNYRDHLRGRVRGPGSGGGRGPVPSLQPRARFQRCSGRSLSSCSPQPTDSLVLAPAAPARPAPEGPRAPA
Mitogen-activated protein kinase kinase kinase 4 (Homo sapiens), sequence (Q9Y6R4 whole entry): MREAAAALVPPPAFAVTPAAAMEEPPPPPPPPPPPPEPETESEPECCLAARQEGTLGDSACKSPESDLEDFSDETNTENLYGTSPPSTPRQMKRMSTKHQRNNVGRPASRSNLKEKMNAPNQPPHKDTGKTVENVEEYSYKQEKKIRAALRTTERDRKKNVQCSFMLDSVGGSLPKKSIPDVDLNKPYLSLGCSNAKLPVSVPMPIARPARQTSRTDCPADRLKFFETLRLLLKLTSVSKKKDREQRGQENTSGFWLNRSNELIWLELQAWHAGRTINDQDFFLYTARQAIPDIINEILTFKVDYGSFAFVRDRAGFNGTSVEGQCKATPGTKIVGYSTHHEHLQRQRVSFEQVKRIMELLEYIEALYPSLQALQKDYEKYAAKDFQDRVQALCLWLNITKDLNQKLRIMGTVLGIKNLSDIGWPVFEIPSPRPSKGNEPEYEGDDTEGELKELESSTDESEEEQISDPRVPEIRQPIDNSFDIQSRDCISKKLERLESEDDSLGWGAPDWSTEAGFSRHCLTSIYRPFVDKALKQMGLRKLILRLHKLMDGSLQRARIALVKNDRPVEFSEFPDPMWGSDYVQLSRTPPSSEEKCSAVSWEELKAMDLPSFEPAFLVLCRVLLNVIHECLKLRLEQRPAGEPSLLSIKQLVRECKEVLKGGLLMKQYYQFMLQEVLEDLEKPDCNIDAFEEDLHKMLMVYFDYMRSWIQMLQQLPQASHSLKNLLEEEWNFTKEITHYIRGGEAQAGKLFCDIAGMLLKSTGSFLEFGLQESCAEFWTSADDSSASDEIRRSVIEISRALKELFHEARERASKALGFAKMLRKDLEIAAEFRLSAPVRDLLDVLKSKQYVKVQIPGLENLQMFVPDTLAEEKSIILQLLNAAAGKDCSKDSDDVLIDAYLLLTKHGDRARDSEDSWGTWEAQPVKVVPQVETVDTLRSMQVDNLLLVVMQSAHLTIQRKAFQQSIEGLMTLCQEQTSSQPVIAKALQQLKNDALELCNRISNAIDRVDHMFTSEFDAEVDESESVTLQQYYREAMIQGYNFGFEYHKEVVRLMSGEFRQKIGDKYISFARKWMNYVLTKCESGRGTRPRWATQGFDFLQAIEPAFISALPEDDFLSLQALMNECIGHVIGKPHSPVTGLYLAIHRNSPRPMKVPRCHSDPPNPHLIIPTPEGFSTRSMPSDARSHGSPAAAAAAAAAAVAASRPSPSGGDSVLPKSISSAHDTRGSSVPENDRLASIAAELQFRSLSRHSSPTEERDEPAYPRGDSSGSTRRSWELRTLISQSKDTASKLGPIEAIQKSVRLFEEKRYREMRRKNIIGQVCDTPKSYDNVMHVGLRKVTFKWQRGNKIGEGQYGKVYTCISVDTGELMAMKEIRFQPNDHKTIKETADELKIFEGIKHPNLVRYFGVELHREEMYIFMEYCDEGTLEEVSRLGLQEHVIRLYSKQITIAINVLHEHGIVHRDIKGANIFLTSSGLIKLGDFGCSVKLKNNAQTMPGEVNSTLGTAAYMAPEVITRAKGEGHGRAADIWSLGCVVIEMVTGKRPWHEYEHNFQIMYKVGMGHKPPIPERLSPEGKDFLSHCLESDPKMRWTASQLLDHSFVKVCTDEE
Interferon-induced, double-stranded RNA-activated protein kinase (Homo sapiens), sequence (P19525 whole entry, canonical isoform): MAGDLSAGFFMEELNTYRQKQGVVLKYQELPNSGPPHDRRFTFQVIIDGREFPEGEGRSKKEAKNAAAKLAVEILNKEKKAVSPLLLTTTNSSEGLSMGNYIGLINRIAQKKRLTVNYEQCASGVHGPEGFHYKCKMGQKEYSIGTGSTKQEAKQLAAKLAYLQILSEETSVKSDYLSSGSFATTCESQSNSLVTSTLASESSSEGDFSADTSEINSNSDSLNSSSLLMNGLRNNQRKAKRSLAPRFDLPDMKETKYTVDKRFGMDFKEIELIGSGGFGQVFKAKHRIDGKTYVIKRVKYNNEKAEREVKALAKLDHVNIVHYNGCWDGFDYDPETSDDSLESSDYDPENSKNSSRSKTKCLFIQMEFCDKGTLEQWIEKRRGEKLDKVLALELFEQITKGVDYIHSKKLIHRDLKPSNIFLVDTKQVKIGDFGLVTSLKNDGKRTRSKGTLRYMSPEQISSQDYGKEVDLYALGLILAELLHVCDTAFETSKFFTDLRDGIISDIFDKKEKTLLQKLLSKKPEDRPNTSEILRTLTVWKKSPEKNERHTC
cGMP-dependent protein kinase 2 (Homo sapiens), sequence (Q13237 whole entry): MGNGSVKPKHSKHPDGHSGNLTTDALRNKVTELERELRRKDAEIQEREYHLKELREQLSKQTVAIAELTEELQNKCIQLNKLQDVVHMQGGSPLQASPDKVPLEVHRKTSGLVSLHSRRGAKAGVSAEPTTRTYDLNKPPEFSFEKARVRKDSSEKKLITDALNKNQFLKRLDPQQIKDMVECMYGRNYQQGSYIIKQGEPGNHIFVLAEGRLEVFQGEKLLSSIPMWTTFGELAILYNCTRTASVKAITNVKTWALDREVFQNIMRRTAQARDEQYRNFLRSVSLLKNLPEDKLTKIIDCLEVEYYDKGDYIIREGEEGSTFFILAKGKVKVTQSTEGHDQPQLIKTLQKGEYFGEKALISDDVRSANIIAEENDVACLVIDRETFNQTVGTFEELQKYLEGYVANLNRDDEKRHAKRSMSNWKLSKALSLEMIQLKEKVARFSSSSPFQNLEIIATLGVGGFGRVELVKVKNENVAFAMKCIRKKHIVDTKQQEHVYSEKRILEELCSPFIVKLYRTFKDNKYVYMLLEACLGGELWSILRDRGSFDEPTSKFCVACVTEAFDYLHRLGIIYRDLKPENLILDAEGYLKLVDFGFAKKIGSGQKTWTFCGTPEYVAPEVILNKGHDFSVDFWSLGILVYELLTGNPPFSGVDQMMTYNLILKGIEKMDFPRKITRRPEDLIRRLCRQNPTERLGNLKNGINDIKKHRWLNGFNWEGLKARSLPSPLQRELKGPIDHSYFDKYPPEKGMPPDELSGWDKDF
3-phosphoinositide-dependent protein kinase 1 (Homo sapiens), sequence (O15530 whole entry): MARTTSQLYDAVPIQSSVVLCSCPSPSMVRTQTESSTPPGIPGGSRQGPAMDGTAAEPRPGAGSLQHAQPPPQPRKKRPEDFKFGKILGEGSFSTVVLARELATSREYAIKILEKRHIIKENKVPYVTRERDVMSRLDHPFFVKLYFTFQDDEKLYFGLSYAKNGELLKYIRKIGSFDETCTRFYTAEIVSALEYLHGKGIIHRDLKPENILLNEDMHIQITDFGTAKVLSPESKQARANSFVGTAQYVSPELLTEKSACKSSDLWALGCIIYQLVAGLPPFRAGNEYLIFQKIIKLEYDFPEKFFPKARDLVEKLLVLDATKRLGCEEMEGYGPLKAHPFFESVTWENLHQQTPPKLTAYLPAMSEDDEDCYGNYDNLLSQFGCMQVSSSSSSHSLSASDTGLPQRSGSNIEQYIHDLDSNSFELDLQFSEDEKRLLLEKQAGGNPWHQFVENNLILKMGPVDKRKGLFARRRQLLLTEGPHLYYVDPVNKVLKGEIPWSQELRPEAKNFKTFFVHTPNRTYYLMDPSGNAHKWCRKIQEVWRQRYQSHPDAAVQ
Phosphatidylinositol 4,5-bisphosphate 3-kinase catalytic subunit alpha isoform (Homo sapiens), P42336 [M1043I], sequence (P42336 whole entry M1043I, canonical isoform): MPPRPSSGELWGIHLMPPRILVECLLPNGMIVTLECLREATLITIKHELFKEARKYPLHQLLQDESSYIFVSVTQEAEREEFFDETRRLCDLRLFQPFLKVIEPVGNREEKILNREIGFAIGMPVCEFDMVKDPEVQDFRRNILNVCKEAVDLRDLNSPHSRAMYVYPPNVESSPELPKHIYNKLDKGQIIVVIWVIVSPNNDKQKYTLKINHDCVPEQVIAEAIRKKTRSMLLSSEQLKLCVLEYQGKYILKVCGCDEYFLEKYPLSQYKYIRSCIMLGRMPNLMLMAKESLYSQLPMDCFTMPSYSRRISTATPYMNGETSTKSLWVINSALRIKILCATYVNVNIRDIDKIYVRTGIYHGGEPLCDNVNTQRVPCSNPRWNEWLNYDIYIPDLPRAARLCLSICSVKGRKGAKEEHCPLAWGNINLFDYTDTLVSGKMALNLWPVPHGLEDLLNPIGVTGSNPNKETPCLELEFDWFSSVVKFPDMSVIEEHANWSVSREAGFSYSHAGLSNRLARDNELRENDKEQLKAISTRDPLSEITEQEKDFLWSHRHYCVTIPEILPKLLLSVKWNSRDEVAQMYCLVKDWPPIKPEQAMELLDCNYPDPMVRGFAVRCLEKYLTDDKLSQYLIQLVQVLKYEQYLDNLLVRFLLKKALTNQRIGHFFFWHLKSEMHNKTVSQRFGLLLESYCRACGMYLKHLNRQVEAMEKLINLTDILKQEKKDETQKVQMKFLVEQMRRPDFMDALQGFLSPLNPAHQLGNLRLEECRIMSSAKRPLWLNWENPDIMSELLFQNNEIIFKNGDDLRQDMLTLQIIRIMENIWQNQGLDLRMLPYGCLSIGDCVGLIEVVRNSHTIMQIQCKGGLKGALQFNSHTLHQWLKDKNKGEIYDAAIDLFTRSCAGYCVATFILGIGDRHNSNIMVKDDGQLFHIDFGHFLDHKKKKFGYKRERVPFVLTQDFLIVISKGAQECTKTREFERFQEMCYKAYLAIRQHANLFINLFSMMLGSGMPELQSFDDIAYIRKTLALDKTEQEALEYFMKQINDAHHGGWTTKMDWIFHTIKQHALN
Phosphatidylinositol 4,5-bisphosphate 3-kinase catalytic subunit alpha isoform (Homo sapiens), P42336 [Q546K], sequence (P42336 whole entry Q546K, canonical isoform): as the sequence (P42336 whole entry M1043I, canonical isoform) above, with Q546K, I1043M counted along it

Row | SMILES | residual activity [1] | residual activity [2] | residual activity [3] | residual activity [4] | residual activity [5] | % Inhibition of Control Specific Binding (Mean n=2) [6] | residual activity [7] | residual activity [8] | residual activity [9] | residual activity [10] | residual activity [11] | residual activity [12] | residual activity [13] | residual activity [14] | residual activity [15] | % Inhibition of Control Specific Binding (Mean n=2) [16] | residual activity [17] | residual activity [18] | residual activity [19] | % Inhibition of Control Specific Binding (Mean n=2) [20] | other results
1 | COc1ccc2c(c1)O[C@H](c1ccc(OC)c(OC)c1)C[C@@H]2NC(=O)C1(c2ccc3c(c2)OC(F)(F)O3)CC1 [A-1596584] | 100% | 84% | 98% | 99% | 91% | 7% | 85% | 100% | 100% | 100% | 98% | 100% | 100% | 100% | 98% | 15.7% | 100% | 87% | 100% | 7.8% | residual activity [21]: 100%; inhibition [22]: 49.9%; residual activity [23]: 100%; residual activity [24]: 90%; residual activity [25]: 91%; inhibition [26]: 5.97%; residual activity [27]: 100%; residual activity [28]: 100%; residual activity [29]: 100%; residual activity [30]: 100%; residual activity [31]: 97%; residual activity [32]: 100%; residual activity [33]: 100%; residual activity [34]: 92%; % Inhibition of Control Specific Binding (Mean n=2) [35]: 44.7%; residual activity [36]: 89%; residual activity [37]: 100%
2 | COc1ccc2c(c1)O[C@@H](c1ccc(OC)c(OC)c1)C[C@H]2NC(=O)C1(c2ccc3c(c2)OC(F)(F)O3)CC1 [A-1596586] | 100% | 91% | 86% | 87% | 67% | 11.7% | 61% | 83% | 100% | 98% | 92% | 100% | 100% | 78% | 95% | 29.3% | 100% | 84% | 65% | 11.2% | residual activity [21]: 76%; inhibition [22]: 22.3%; residual activity [23]: 100%; residual activity [24]: 80%; residual activity [25]: 77%; inhibition [26]: 49%; residual activity [27]: 100%; residual activity [28]: 86%; residual activity [29]: 75%; residual activity [30]: 89%; residual activity [31]: 100%; residual activity [32]: 98%; residual activity [33]: 98%; residual activity [34]: 83%; % Inhibition of Control Specific Binding (Mean n=2) [35]: 42.2%; residual activity [36]: 96%; residual activity [37]: 95%
